According to patent publication US10537558B2 (Bantam Pharmaceutical, LLC, priority 2015, dated 2020):

Test system: BJAB cells
Assay: BJAB cell proliferation (Cell Titer Glo)
Assay type: cell-based
Conditions: Homo sapiens, read-out: EC50
Protocol: Cells were seeded in white Corning Costar 96-well assay plates at 2500 cells/well in 50 μL of medium. Serial dilutions of test compounds were made in cell culture medium/FBS+0.2% DMSO, and transferred to assay plates in a volume of 50 μL (DMSO at 0.1% final). Plates were maintained at 37° C. for approximately 72 hours. The effect of compounds on cell proliferation was evaluated using the Cell Titer Glo reagent (Promega), according to the manufacturer's instructions. Briefly, 100 μL of reagent was added per well, and after a 10 minute incubation luminescence values were determined on a plate reader (Tecan F200PRO). The percent of luminescence signal relative to untreated controls was calculated for each compound concentration, and EC50 values were determined from dose response data by non-linear regression analysis using Prism (GraphPad). The mTor inhibitor Torin1 (Liu, et al. (2010) J. Med. Chem. 53, 7146.) was used as a control. The data are summarized in the compound table provided above.

Compound	EC50 [µM]
Cc1nn(-c2nc(-c3ccc(Cl)c(Cl)c3)c(SC(C)C)s2)c(C(=O)O)c1-c1cccnc1 [Compound 44, 1-(4-(3,4-dichlorophenyl)-5-(isopropylthio)thiazol-2-yl)-3-methyl-4-(pyridin-3-yl)-1H-pyrazole-5-carboxylic acid]	10 to 25
CSc1sc(-n2nc(C)c(Cc3ccccc3[N+](=O)[O-])c2C(=O)O)nc1-c1ccc(Cl)c(Cl)c1 [Compound 45, 1-(4-(3,4-dichlorophenyl)-5-(methylthio)thiazol-2-yl)-3-methyl-4-(2-nitrobenzyl)-1H-pyrazole-5-carboxylic acid]	25 to 50
Cc1nn(-c2nc(-c3ccc(Cl)c(Cl)c3)c(SC(C)C)s2)c(C(=O)O)c1-c1cccc(CO)c1 [Compound 46, 1-(4-(3,4-dichlorophenyl)-5-(isopropylthio)thiazol-2-yl)-4-(3-(hydroxymethyl)phenyl)-3-methyl-1H-pyrazole-5-carboxylic acid]	10 to 25
Cc1nn(-c2nc(-c3ccc(Cl)c(Cl)c3)c(SC(C)C)s2)c(C(=O)O)c1-c1ccncc1 [Compound 47, 1-(4-(3,4-dichlorophenyl)-5-(isopropylthio)thiazol-2-yl)-3-methyl-4-(pyridin-4-yl)-1H-pyrazole-5-carboxylic Acid]	5 to 10
Cc1nn(-c2nc(-c3ccc(Cl)c(Cl)c3)c(SC(C)C)s2)c(C(=O)O)c1-c1cccc(CN)c1 [Compound 48, 4-(3-(aminomethyl)phenyl)-1-(4-(3,4-dichlorophenyl)-5-(isopropylthio)thiazol-2-yl)-3-methyl-1H-pyrazole-5-carboxylic acid]	25 to 50
Cc1nn(-c2nc(-c3ccc(Cl)c(Cl)c3)c(SC(C)C)s2)c(C(=O)O)c1-c1ccc(CO)cc1 [Compound 49, 1-(4-(3,4-dichlorophenyl)-5-(isopropylthio)thiazol-2-yl)-4-(4-(hydroxymethyl)phenyl)-3-methyl-1H-pyrazole-5-carboxylic acid]	> 50
Cc1nn(-c2nc(-c3ccc(Cl)c(Cl)c3)c(SC(C)C)s2)c(C(=O)O)c1-c1ccccc1C(F)(F)F [Compound 50, 1-(4-(3,4-dichlorophenyl)-5-(isopropylthio)thiazol-2-yl)-3-methyl-4-(2-(trifluoromethyl)phenyl)-1H-pyrazole-5-carboxylic acid]	5 to 10
Cc1nn(-c2nc(-c3ccc(Cl)c(Cl)c3)c(SC(C)C)s2)c(C(=O)O)c1-c1cccc(C(F)(F)F)c1 [Compound 51, 1-(4-(3,4-dichlorophenyl)-5-(isopropylthio)thiazol-2-yl)-3-methyl-4-(3-(trifluoromethyl)phenyl)-1H-pyrazole-5-carboxylic Acid]	1 to 5
Cc1nn(-c2nc(-c3ccc(Cl)c(Cl)c3)c(SC(C)C)s2)c(C(=O)O)c1-c1ccc(C(F)(F)F)cc1 [Compound 52, 1-(4-(3,4-dichlorophenyl)-5-(isopropylthio)thiazol-2-yl)-3-methyl-4-(4-(trifluoromethyl)phenyl)-1H-pyrazole-5-carboxylic Acid]	10 to 25
Cc1nn(-c2nc(-c3ccc(Cl)c(Cl)c3)c(SC(C)C)s2)c(C(=O)O)c1C(O)c1ccccc1 (centres unmarked) [Compound 53, 1-(4-(3,4-dichlorophenyl)-5-(isopropylthio)thiazol-2-yl)-4-(hydroxy(phenyl)methyl)-3-methyl-1H-pyrazole-5-carboxylic Acid]	> 50
Cc1nn(-c2nc(-c3ccc(Cl)c(Cl)c3)c([S+]([O-])C(C)C)s2)c(C(=O)O)c1Cc1ccccc1[N+](=O)[O-] (centres unmarked) [Compound 54, 1-(4-(3,4-dichlorophenyl)-5-(isopropylsulfinyl)thiazol-2-yl)-3-methyl-4-(2-nitrobenzyl)-1H-pyrazole-5-carboxylic acid]	25 to 50
Cc1nn(-c2nc(-c3ccc(Cl)c(Cl)c3)c(S(=O)(=O)C(C)C)s2)c(C(=O)O)c1Cc1ccccc1[N+](=O)[O-] [Compound 55, 1-(4-(3,4-dichlorophenyl)-5-(isopropylsulfonyl)thiazol-2-yl)-3-methyl-4-(2-nitrobenzyl)-1H-pyrazole-5-carboxylic acid]	10 to 25
Cc1nn(-c2nc(-c3ccc(Cl)c(Cl)c3)c(SC(C)C)s2)c(C(=O)O)c1-c1nnc2ccccn12 [Compound 56, 4-([1,2,4]triazolo[4,3-a]pyridin-3-yl)-1-(4-(3,4-dichlorophenyl)-5-(isopropylthio)thiazol-2-yl)-3-methyl-1H-pyrazole-5-carboxylic Acid]	> 50
Cc1noc(C)c1-c1c(C)nn(-c2nc(-c3ccc(Cl)c(Cl)c3)c(SC(C)C)s2)c1C(=O)O [Compound 57, 1-(4-(3,4-dichlorophenyl)-5-(isopropylthio)thiazol-2-yl)-4-(3,5-dimethylisoxazol-4-yl)-3-methyl-1H-pyrazole-5-carboxylic acid]	10 to 25
Cc1nn(-c2nc(-c3ccc(Cl)c(Cl)c3)c(SC(C)C)s2)c(C(=O)O)c1-c1nc2ccccc2[nH]1 [Compound 58, 4-(1H-benzo[d]imidazol-2-yl)-1-(4-(3,4-dichlorophenyl)-5-(isopropylthio)thiazol-2-yl)-3-methyl-1H-pyrazole-5-carboxylic Acid]	25 to 50
Cc1nn(-c2nc(-c3ccc(Cl)c(Cl)c3)c(SC(C)C)s2)c(C(=O)O)c1-c1cccc(Cl)c1C [Compound 59, 4-(3-chloro-2-methylphenyl)-1-(4-(3,4-dichlorophenyl)-5-(isopropylthio)thiazol-2-yl)-3-methyl-1H-pyrazole-5-carboxylic Acid]	5 to 10
Cc1nn(-c2nc(-c3ccc(Cl)c(Cl)c3)c(SC(C)C)s2)c(C(=O)O)c1-c1cc(C(F)(F)F)cc(C(F)(F)F)c1 [Compound 60, 4-(3,5-bis(trifluoromethyl)phenyl)-1-(4-(3,4-dichlorophenyl)-5-(isopropylthio)thiazol-2-yl)-3-methyl-1H-pyrazole-5-carboxylic Acid]	1 to 5
Cc1nn(-c2nc(-c3ccc(Cl)c(Cl)c3)c(SC(C)C)s2)c(C(=O)O)c1-c1cccc(C(C)C)c1 [Compound 61, 1-(4-(3,4-dichlorophenyl)-5-(isopropylthio)thiazol-2-yl)-4-(3-isopropylphenyl)-3-methyl-1H-pyrazole-5-carboxylic Acid]	1 to 5
COc1ccc(C)cc1-c1c(C)nn(-c2nc(-c3ccc(Cl)c(Cl)c3)c(SC(C)C)s2)c1C(=O)O [Compound 62, 1-(4-(3,4-dichlorophenyl)-5-(isopropylthio)thiazol-2-yl)-4-(2-methoxy-5-methylphenyl)-3-methyl-1H-pyrazole-5-carboxylic acid]	5 to 10
Cc1nn(-c2nc(-c3ccc(Cl)c(Cl)c3)c(SC(C)C)s2)c(C(=O)O)c1-c1ncc[nH]1 [Compound 63, 1-(4-(3,4-dichlorophenyl)-5-(isopropylthio)thiazol-2-yl)-4-(1H-imidazol-2-yl)-3-methyl-1H-pyrazole-5-carboxylic acid]	10 to 25
Cc1nn(-c2nc(-c3ccc(Cl)c(Cl)c3)c(SC(C)C)s2)c(C(=O)O)c1-c1cnn2ccccc12 [Compound 64, 1-(4-(3,4-dichlorophenyl)-5-(isopropylthio)thiazol-2-yl)-3-methyl-4-(pyrazolo[1,5-a]pyridin-3-yl)-1H-pyrazole-5-carboxylic acid]	10 to 25
Cc1nn(-c2nc(-c3ccc(Cl)c(Cl)c3)c(SC(C)C)s2)c(C(=O)O)c1-c1cnn2cccnc12 [Compound 65, 1-(4-(3,4-dichlorophenyl)-5-(isopropylthio)thiazol-2-yl)-3-methyl-4-(pyrazolo[1,5-a]pyrimidin-3-yl)-1H-pyrazole-5-carboxylic acid]	25 to 50
Cc1nn(-c2nc(-c3ccc(Cl)c(Cl)c3)c(SC(C)C)s2)c(C(=O)O)c1-c1cnn(C)c1 [Compound 66, 2-(4-(3,4-dichlorophenyl)-5-(isopropylthio)thiazol-2-yl)-2′,5-dimethyl-4,4′-bi(2H-pyrazole)-3-carboxylic acid]	5 to 10
Cc1nn(-c2nc(-c3ccc(Cl)c(Cl)c3)c(S(=O)(=O)C(C)C)s2)c(C(=O)O)c1-c1cnn(C)c1 [Compound 67, 2-(4-(3,4-dichlorophenyl)-5-(isopropylsulfonyl)thiazol-2-yl)-2′,5-dimethyl-4,4′-bi(2H-pyrazole)-3-carboxylic acid]	25 to 50
Cc1nn(-c2nc(-c3ccc(Cl)c(Cl)c3)c(SC(C)C)s2)c(C(=O)O)c1-c1nc2ccccc2n1C [Compound 68, 1-(4-(3,4-dichlorophenyl)-5-(isopropylthio)thiazol-2-yl)-3-methyl-4-(1-methy-1H-benzo[d]imidazol-2-yl)-1H-pyrazole-5-carboxylic acid]	> 50
Cc1nn(-c2nc(-c3ccc(Cl)c(Cl)c3)c(SC(C)C)s2)c(C(=O)O)c1-c1cncc(C#N)c1 [Compound 69, 4-(5-cyanopyridin-3-yl)-1-(4-(3,4-dichlorophenyl)-5-(isopropylthio)thiazol-2-yl)-3-methyl-1H-pyrazole-5-carboxylic Acid]	10 to 25
CCOc1ncccc1-c1c(C)nn(-c2nc(-c3ccc(Cl)c(Cl)c3)c(SC(C)C)s2)c1C(=O)O [Compound 70, 1-(4-(3,4-dichlorophenyl)-5-(isopropylthio)thiazol-2-yl)-4-(2-ethoxypyridin-3-yl)-3-methyl-1H-pyrazole-5-carboxylic Acid]	10 to 25
Cc1cc(-c2c(C)nn(-c3nc(-c4ccc(Cl)c(Cl)c4)c(SC(C)C)s3)c2C(=O)O)n(C)n1 [Compound 71, 2′-(4-(3,4-dichlorophenyl)-5-(isopropylthio)thiazol-2-yl)-2,5,5′-trimethyl-3,4′-bi(2H-pyrazole)-3′-carboxylic Acid]	10 to 25
Cc1nn(-c2nc(-c3ccc(Cl)c(Cl)c3)c(SC(C)C)s2)c(C(=O)O)c1-c1cncnc1 [Compound 72, 1-(4-(3,4-dichlorophenyl)-5-(isopropylthio)thiazol-2-yl)-3-methyl-4-(pyrimidin-5-yl)-1H-pyrazole-5-carboxylic Acid]	10 to 25
